From ChEMBL document CHEMBL1154587, “Discovery of novel sphingosine kinase 1 inhibitors” (Bioorg Med Chem Lett, 2009)
The source made the active and inactive calls. No cut-off for these calls is given here.

What was measured:
[1] = molecular target: T1, Sphingosine kinase 2 (Homo sapiens) (UniProt Q9NRA0); test: Inhibition of sphingosine kinase 2 at 10 uM
T1 sequence (whole entry): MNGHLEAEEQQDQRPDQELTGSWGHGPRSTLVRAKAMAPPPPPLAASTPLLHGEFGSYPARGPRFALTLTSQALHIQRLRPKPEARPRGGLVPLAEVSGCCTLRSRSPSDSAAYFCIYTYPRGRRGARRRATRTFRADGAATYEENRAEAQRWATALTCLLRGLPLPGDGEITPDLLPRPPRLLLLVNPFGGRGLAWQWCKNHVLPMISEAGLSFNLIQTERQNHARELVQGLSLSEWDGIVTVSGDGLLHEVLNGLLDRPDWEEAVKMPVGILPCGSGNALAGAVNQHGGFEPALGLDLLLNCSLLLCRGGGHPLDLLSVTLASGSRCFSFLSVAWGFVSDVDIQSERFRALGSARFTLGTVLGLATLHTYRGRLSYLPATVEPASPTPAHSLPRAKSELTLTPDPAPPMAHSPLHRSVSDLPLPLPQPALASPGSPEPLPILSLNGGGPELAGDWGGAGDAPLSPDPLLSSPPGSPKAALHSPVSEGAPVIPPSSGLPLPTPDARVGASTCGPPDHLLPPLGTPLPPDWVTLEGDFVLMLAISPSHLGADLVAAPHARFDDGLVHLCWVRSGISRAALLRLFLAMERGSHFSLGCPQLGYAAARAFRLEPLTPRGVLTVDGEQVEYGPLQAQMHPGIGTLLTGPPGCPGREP

Sphingosine kinase 1 = Sphingosine kinase 1 (Homo sapiens, UniProt Q9NYA1); test: Inhibition of human sphingosine kinase 1 by off chip mobility shift assay
Sequence of Sphingosine kinase 1 (Q9NYA1 whole entry): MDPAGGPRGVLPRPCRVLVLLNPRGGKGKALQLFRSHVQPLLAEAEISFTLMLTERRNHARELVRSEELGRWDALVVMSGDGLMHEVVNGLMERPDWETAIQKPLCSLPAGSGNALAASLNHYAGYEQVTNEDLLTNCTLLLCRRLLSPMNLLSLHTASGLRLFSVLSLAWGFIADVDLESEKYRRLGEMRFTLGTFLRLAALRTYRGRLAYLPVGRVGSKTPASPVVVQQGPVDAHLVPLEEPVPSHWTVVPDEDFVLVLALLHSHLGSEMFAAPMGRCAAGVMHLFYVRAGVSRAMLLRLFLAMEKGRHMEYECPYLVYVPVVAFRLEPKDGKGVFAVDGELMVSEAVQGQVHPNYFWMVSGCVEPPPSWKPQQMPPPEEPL

**Q.** How did the inhibition [1] turn out when `CCCCCCCCc1ccc(NC(=O)[C@@H](N)[C@H](C)O)cc1` was run?
**A.** inactive

**Q.** How did the inhibition [1] turn out when `CCCCCCCCc1ccc(NC[C@@H](N)CO)cc1` was run?
**A.** inactive

**Q.** Which results are given for `CCCCCCCCc1ccc(NC(=O)C(C)(N)CO)cc1` (racemic)?
**A.** IC50 (Sphingosine kinase 1): > 10 µM; inhibition [1]: inactive

**Q.** Which inhibition [1] does the source give for `CCCCCCCCc1ccc(NC(=O)[C@H](N)[C@H](C)O)cc1` here?
**A.** inactive

**Q.** `CCCCCCCCc1ccc(NC(=O)C(N)CCCO)cc1` (racemic) was tested. Which IC50 (Sphingosine kinase 1) did it give?
**A.** > 10 µM

**Q.** What about the inhibition [1] of the same molecule?
**A.** inactive

**Q.** For `CCCCCCCCc1ccc(NC(=O)[C@H]2NCC[C@@H]2O)cc1`, which inhibition [1] is on record?
**A.** inactive

**Q.** What does the source list for `CCCCCCCCc1ccc(CNC(=O)[C@H]2NCC[C@@H]2O)cc1`?
**A.** IC50 (Sphingosine kinase 1): 0.43 µM; inhibition [1]: inactive

**Q.** Which results are given for `CCCCCCCCc1ccc(NC(=O)[C@H]2NC[C@@H](O)[C@@H]2O)cc1`?
**A.** IC50 (Sphingosine kinase 1): 8.3 µM; inhibition [1]: inactive

**Q.** For `CCCCCCCCc1ccc(NC(=O)[C@@H](N)CCO)cc1`, which inhibition [1] is on record?
**A.** inactive

**Q.** How did the inhibition [1] turn out when `CCCCCCCCc1ccc(CNC(=O)C(N)CCO)cc1` (racemic) was run?
**A.** inactive

**Q.** Which IC50 (Sphingosine kinase 1) does the source give for `CCCCCCCCc1ccc(NC(=O)[C@@H](N)COC)cc1` here?
**A.** > 10 µM

**Q.** What about the inhibition [1] of the same molecule?
**A.** inactive

**Q.** With `CCCCCCCCc1ccc(NC(=O)[C@@H](N)CO)cc1` as the molecule, how does the inhibition [1] read?
**A.** inactive

**Q.** With `CCCCCCCCc1ccc(NC(=O)[C@@H](N)CCCCO)cc1` as the molecule, how does the inhibition [1] read?
**A.** inactive

**Q.** Which inhibition [1] does the source give for `CCCCCCCCCCCCC/C=C/[C@@H](O)[C@H](CO)N(C)C` here?
**A.** inactive

**Q.** For `CCCCCCCCc1ccc(NC(=O)[C@@H](N)[C@@H](O)CC)cc1` (racemic), which inhibition [1] is on record?
**A.** inactive

**Q.** With `CCCCCCCCc1ccc(NCC(N)CCO)cc1` (configuration not stated) as the molecule, how does the IC50 (Sphingosine kinase 1) read?
**A.** > 10 µM

**Q.** And the inhibition [1]?
**A.** inactive

**Q.** How did the inhibition [1] turn out when `CCCCCCCCc1ccc(NC(=O)[C@H]2NCC[C@H]2O)cc1` was run?
**A.** inactive

**Q.** How did the inhibition [1] turn out when `CCCCCCCCc1ccc(NC(=O)[C@H](N)CO)cc1` was run?
**A.** inactive

**Q.** `CCCCCCCCc1ccc(NC[C@H]2NCC[C@@H]2O)cc1` was tested. Which inhibition [1] did it give?
**A.** inactive

**Q.** What does the source list for `CCCCCCCCc1ccc(NC(=O)C(N)C(C)(C)O)cc1` (racemic)?
**A.** IC50 (Sphingosine kinase 1): 2.1 µM; inhibition [1]: inactive

**Q.** How did the inhibition [1] turn out when `CCCCCCCCc1ccc(NC(=O)[C@H](N)[C@@H](C)O)cc1` was run?
**A.** inactive

**Q.** How did the IC50 (Sphingosine kinase 1) turn out when `CCCCCCCCc1ccc(CCNC(=O)[C@H]2NCC[C@@H]2O)cc1` was run?
**A.** 6.2 µM

**Q.** And the inhibition [1]?
**A.** inactive

**Q.** What does the source list for `CCCCCCCCc1ccc(NC(=O)[C@@H](N)[C@@H](C)O)cc1`?
**A.** IC50 (Sphingosine kinase 1): 0.65 µM; inhibition [1]: inactive

**Q.** Which inhibition [1] does the source give for `CCCCCCCCc1ccc(NC(=O)[C@H](CO)NC)cc1` here?
**A.** inactive

**Q.** Which inhibition [1] does the source give for `CCCCCCCCc1ccc(NC(=O)C(N)CCO)cc1` (racemic) here?
**A.** inactive

**Q.** For `CCCCCCCCc1ccc(CNC(=O)C(N)CO)cc1` (racemic), which IC50 (Sphingosine kinase 1) is on record?
**A.** > 10 µM

**Q.** And the inhibition [1]?
**A.** inactive

**Q.** Which inhibition [1] does the source give for `CCCCCCCCc1ccc(NC(=O)[C@H](N)CCO)cc1` here?
**A.** inactive
